Patent publication US11046680B1, “Heteroaryl-substituted triazoles as APJ receptor agonists” (priority 2016, dated 2021)

The compounds below were run against human APJ receptor (Homo sapiens (Human), UniProt P35414) (assay: biochemical). Conditions: [35S]GTPγS binding, CHO membranes expressing human APJ receptor; read-out: Activity hAPJ SPA EC50 IP.
Type: biochemical
Description: The human APJ receptor was cloned by polymerase chain reaction and the gene encoding the receptor was subcloned in pFLAG-CMV™-3 expression vector (Sigma, Saint Louis, Mo. USA) in-house at Amgen. A GTPγS binding assay was performed on membranes prepared from CHO cells stably expressing human APJ receptor. The optimum experimental conditions for the concentrations of GDP, MgCl2, and NaCl in the assay buffer were initially determined. […] Incubation was at RT for 90 min and the microplate was read using a ViewLux™ ultra HTS Microplate Imager (PerkinElmer, Inc.).

Chain of human APJ receptor (P35414 whole entry): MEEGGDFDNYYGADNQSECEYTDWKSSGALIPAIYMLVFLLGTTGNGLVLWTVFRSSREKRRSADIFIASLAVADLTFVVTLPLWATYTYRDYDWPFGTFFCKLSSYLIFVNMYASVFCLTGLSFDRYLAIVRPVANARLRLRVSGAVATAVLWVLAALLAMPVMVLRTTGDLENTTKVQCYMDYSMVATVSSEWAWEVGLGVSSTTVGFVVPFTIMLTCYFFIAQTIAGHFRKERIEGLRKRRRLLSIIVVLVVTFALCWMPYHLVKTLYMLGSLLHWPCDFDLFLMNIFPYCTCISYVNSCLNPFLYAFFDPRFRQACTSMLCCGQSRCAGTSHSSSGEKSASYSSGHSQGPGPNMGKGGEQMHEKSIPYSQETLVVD

Compared with `COc1cccc(OC)c1-n1c(NS(=O)(=O)C[C@H](O)c2ccc(F)cc2S(C)(=O)=O)nnc1-c1ccn(C)n1` (single isomer, unassigned) [Example 370.0, (R)-N-(4-(2,6-Dimethoxyphenyl)-5-(1-methyl-1H-pyrazol-3-yl)-4H-1,2,4-triazol-3-yl)-2-(4-fluoro-2-(methylsulfonyl)phenyl)-2-hydroxyethanesulfonamide or (S)-N-(4-(2,6-dimethoxyphenyl)-5-(1-methyl-1H-pyrazol-3-yl)-4H-1,2,4-triazol-3-yl)-2-(4-fluoro-2-(methylsulfonyl)phenyl)-2-hydroxyethanesulfonamide], `COc1cccc(OC)c1-n1c(NS(=O)(=O)[C@@H](C)[C@H](OC)c2ncc(Cl)cn2)nnc1-c1cncc(C)n1` [Example 214.0, (1R,2S)-1-(5-chloro-2-pyrimidinyl)-N-(4-(2,6-dimethoxyphenyl)-5-(6-methyl-2-pyrazinyl)-4H-1,2,4-triazol-3-yl)-1-methoxy-2-propanesulfonamide] is 7.8-fold lower in EC50: 3.1 nM for the first, 0.4 nM for the second.

Going from `CO[C@H](c1ncc(Cl)cn1)[C@H](C)S(=O)(=O)Nc1nnc(-c2nn(C)c3c2CCCC3)n1C(C)C` [Example 512.0, (1R,2S)-1-(5-chloropyrimidin-2-yl)-N-(4-isopropyl-5-(1-methyl-4,5,6,7-tetrahydro-1H-indazol-3-yl)-4H-1,2,4-triazol-3-yl)-1-methoxypropane-2-sulfonamide] to `COCC1(n2c(NS(=O)(=O)[C@@H](C)[C@H](C)c3cnc(OC)cn3)nnc2-c2ccn(C)n2)CC1` [Example 454.0, (2S,3R)-N-(4-(1-(methoxymethyl)cyclopropyl)-5-(1-methyl-1H-pyrazol-3-yl)-4H-1,2,4-triazol-3-yl)-3-(5-methoxy-2-pyrazinyl)-2-butanesulfonamide], the EC50 falls from 130 nM to 56 nM (2.3-fold).

Going from `CCO[C@H](c1ncc(Cl)cn1)[C@H](C)S(=O)(=O)Nc1nnc(-c2cc(C)n[nH]2)n1-c1c(OC)cccc1OC` [Example 392.0, (1R,2S)-1-(5-Chloropyrimidin-2-yl)-N-(4-(2,6-dimethoxyphenyl)-5-(3-methyl-1H-pyrazol-5-yl)-4H-1,2,4-triazol-3-yl)-1-ethoxypropane-2-sulfonamide] to `COCC(COC)n1c(NS(=O)(=O)[C@@H](C)[C@H](C)c2ncc(Cl)cn2)nnc1-c1nn(C)c2ccc(C)cc12` [Example 448.0, (2S,3R)-3-(5-chloropyrimidin-2-yl)-N-(4-(1,3-dimethoxypropan-2-yl)-5-(1,5-dimethyl-1H-indazol-3-yl)-4H-1,2,4-triazol-3-yl)butane-2-sulfonamide], the EC50 rises from 1 nM to 10 nM (10-fold).

Compared with `COCC1(n2c(NS(=O)(=O)[C@@H](C)[C@H](OC)c3ncc(Cl)cn3)nnc2-c2nn(C)c3c2CCCC3)CC1` [Example 513.0, (1R,2S)-1-(5-chloropyrimidin-2-yl)-1-methoxy-N-(4-(1-(methoxymethyl)cyclopropyl)-5-(1-methyl-4,5,6,7-tetrahydro-1H-indazol-3-yl)-4H-1,2,4-triazol-3-yl)propane-2-sulfonamide], `COc1cccc(OC)c1-n1c(NS(=O)(=O)C[C@H](OC)c2ccc(Cl)cn2)nnc1-c1ccn(C)n1` (single isomer, unassigned) [Example 376.0, (R)-2-(5-Chloropyridin-2-yl)-N-(4-(2,6-dimethoxyphenyl)-5-(1-methyl-1H-pyrazol-3-yl)-4H-1,2,4-triazol-3-yl)-2-methoxyethanesulfonamide or (S)-2-(5-chloropyridin-2-yl)-N-(4-(2,6-dimethoxyphenyl)-5-(1-methyl-1H-pyrazol-3-yl)-4H-1,2,4-triazol-3-yl)-2-methoxyethanesulfonamide] is 1.8-fold lower in EC50: 3.1 nM for the first, 1.7 nM for the second.

First: COc1ccc(N2CCC2=O)cc1-n1c(NS(=O)(=O)CCc2ccc(F)cc2Br)nnc1-c1cccs1 [Example 131.0, 2-(2-Bromo-4-fluorophenyl)-N-(4-(2-methoxy-5-(2-oxoazetidin-1-yl)phenyl)-5-(thiophen-2-yl)-4H-1,2,4-triazol-3-yl)ethanesulfonamide]
Second: COc1cccc(OC)c1-n1c(NS(=O)(=O)[C@@H](C)[C@@H](OC(C)C)c2ncc(C)cn2)nnc1-c1ccn(C)n1 [Example 355.0, (1S,2S)-N-(4-(2,6-dimethoxyphenyl)-5-(1-methyl-1H-pyrazol-3-yl)-4H-1,2,4-triazol-3-yl)-1-isopropoxy-1-(5-methylpyrimidin-2-yl)propane-2-sulfonamide]
The EC50 of the first is 8.7-fold higher: 4.1 nM for the first, 0.47 nM for the second. The second is the more potent here.

First: COc1ncnc(OC)c1-n1c(NS(=O)(=O)[C@@H](C)[C@H](OC)c2ncc(Cl)cn2)nnc1-c1noc2ccccc12 [Example 420.0, (1R,2S)-N-(5-(benzo[d]isoxazol-3-yl)-4-(4,6-dimethoxypyrimidin-5-yl)-4H-1,2,4-triazol-3-yl)-1-(5-chloropyrimidin-2-yl)-1-methoxypropane-2-sulfonamide]
Second: COc1cccc(OC)c1-n1c(NS(=O)(=O)[C@@H](C)[C@H](OC)c2ncc(Cl)cn2)nnc1-c1cc2n(n1)CCC2 [Example 210.0, (1R,2S)-1-(5-chloro-2-pyrimidinyl)-N-(5-(5,6-dihydro-4H-pyrrolo[1,2-b]pyrazol-2-yl)-4-(2,6-dimethoxyphenyl)-4H-1,2,4-triazol-3-yl)-1-methoxy-2-propanesulfonamide]
The EC50 of the first is 33-fold higher: 27 nM for the first, 0.83 nM for the second.

Compared with `COc1cncc(-c2nnc(NS(=O)(=O)[C@@H](C)[C@H](OC)c3ncc(C)cn3)n2-c2c(OC)cccc2OC)n1` [Example 343.0, (1R,2S)-N-(4-(2,6-dimethoxyphenyl)-5-(6-methoxy-2-pyrazinyl)-4H-1,2,4-triazol-3-yl)-1-methoxy-1-(5-methyl-2-pyrimidinyl)-2-propanesulfonamide], `CCc1csc(-c2nnc(NS(=O)(=O)CCc3ccc(F)cc3C#N)n2-c2c(OC)cccc2OC)n1` [Example 153.0, 2-(2-cyano-4-fluorophenyl)-N-(4-(2,6-dimethoxyphenyl)-5-(4-ethylthiazol-2-yl)-4H-1,2,4-triazol-3-yl)ethanesulfonamide] is 4.2-fold higher in EC50: 2.6 nM for the first, 11 nM for the second. The first is the more potent here.

Compared with `COCC1(n2c(NS(=O)(=O)[C@@H](C)[C@H](OC)c3ncc(Cl)cn3)nnc2-c2n[nH]c3ccccc23)CC1` [Example 495.0, (1R,2S)-1-(5-chloro-2-pyrimidinyl)-N-(5-(1H-indazol-3-yl)-4-(1-(methoxymethyl)cyclopropyl)-4H-1,2,4-triazol-3-yl)-1-methoxy-2-propanesulfonamide], `COc1cccc(OC)c1-n1c(NS(=O)(=O)[C@@H](C)[C@H](O)c2ncc(C)cn2)nnc1-c1cc2n(n1)CCC2` [Example 220.0, (1R,2S)-N-(5-(5,6-dihydro-4H-pyrrolo[1,2-b]pyrazol-2-yl)-4-(2,6-dimethoxyphenyl)-4H-1,2,4-triazol-3-yl)-1-hydroxy-1-(5-methyl-2-pyrimidinyl)-2-propanesulfonamide] is 2-fold lower in EC50: 13 nM for the first, 6.6 nM for the second.

First: COCC(COC)n1c(NS(=O)(=O)[C@@H](C)[C@H](C)c2cnc(OC)cn2)nnc1-c1ccn(C)n1 [Example 453.0, (2S,3R)-N-(4-(1,3-dimethoxy-2-propanyl)-5-(1-methyl-1H-pyrazol-3-yl)-4H-1,2,4-triazol-3-yl)-3-(5-methoxy-2-pyrazinyl)-2-butanesulfonamide]
Second: COc1cccc(OC)c1-n1c(NS(=O)(=O)[C@@H](C)[C@H](C)c2ncc(C)cn2)nnc1-c1cc2n(n1)CCC2 [Example 219.0, (2S,3R)-N-(5-(5,6-dihydro-4H-pyrrolo[1,2-b]pyrazol-2-yl)-4-(2,6-dimethoxyphenyl)-4H-1,2,4-triazol-3-yl)-3-(5-methyl-2-pyrimidinyl)-2-butanesulfonamide]
The EC50 of the first is 43-fold higher: 73 nM for the first, 1.7 nM for the second.

Compared with `COc1ccccc1-n1c(NS(=O)(=O)CCc2ccccc2)nnc1-c1cccs1` [Example 238.0, N-(4-(2-methoxyphenyl)-5-(2-thiophenyl)-4H-1,2,4-triazol-3-yl)-2-phenylethanesulfonamide], `CO[C@H](c1ncc(C)cn1)[C@H](C)S(=O)(=O)Nc1nnc(-c2ccn(C)n2)n1-c1c(F)cccc1F` [Example 233.0, (1R,2S)-N-(4-(2,6-difluorophenyl)-5-(1-methyl-1H-pyrazol-3-yl)-4H-1,2,4-triazol-3-yl)-1-methoxy-1-(5-methyl-2-pyrimidinyl)-2-propanesulfonamide] is 13-fold lower in EC50: 226 nM for the first, 17 nM for the second.

First: CO[C@H](c1ncc(Cl)cn1)[C@H](C)S(=O)(=O)Nc1nnc(-c2noc3ccccc23)n1C1CC1 [Example 506.0, (1R,2S)-N-(5-(benzo[d]isoxazol-3-yl)-4-cyclopropyl-4H-1,2,4-triazol-3-yl)-1-(5-chloropyrimidin-2-yl)-1-methoxypropane-2-sulfonamide]
Second: (2R,3S)-N-(4-(2,6-dimethoxyphenyl)-5-(1-methyl-1H-pyrazol-3-yl)-4H-1,2,4-triazol-3-yl)-3-(5-methyl-1-oxido-2-pyrazinyl)-2-butanesulfonamide and (2S,3R)-N-(4-(2,6-dimethoxyphenyl)-5-(1-methyl-1H-pyrazol-3-yl)-4H-1,2,4-triazol-3-yl)-3-(5-methyl-1-oxido-2-pyrazinyl)-2-butanesulfonamide [Example 280.0]
The EC50 of the first is 74-fold higher: 260 nM for the first, 3.5 nM for the second.

Compared with `COc1cccc(OC)c1-n1c(NS(=O)(=O)[C@@H](C)[C@H](OC)c2ncc(C)cn2)nnc1-c1cnn2ccccc12` [Example 415.0, (1R,2S)-N-(4-(2,6-dimethoxyphenyl)-5-(pyrazolo[1,5-a]pyridin-3-yl)-4H-1,2,4-triazo1-3-yl)-1-methoxy-1-(5-methylpyrimidin-2-yl)propane-2-sulfonamide], `COc1cnc([C@@H](C)[C@H](C)S(=O)(=O)Nc2nnc(-c3ccn(C)n3)n2-c2c(F)cccc2F)cn1` [Example 230.0, (2S,3R)-N-(4-(2,6-difluorophenyl)-5-(1-methyl-1H-pyrazol-3-yl)-4H-1,2,4-triazol-3-yl)-3-(5-methoxy-2-pyrazinyl)-2-butanesulfonamide] is 4.8-fold higher in EC50: 5.2 nM for the first, 25 nM for the second. The first is the more potent here.
